How the values were obtained:
Format in all cases: physicochemical
[1] = AQ4 and AQ4N loading profile and maximum loading capacity of DC Bead; settings: DC Bead 500-700 μm; AQ4N target loading 60 mg/mL, 20 hr
[2] = Maximum loading capacity of DEB with Doxorubicin and Mitoxantrone; settings: beads 700-900 μm
Protocol: Microspheres of the invention were prepared as described in the Reference Example. Sample beads of the size range 700-900 μm were loaded by immersing the beads in aqueous solutions of Doxorubicin HCl (Dox) and Mitoxantrone 2HCl (Mitox). Loading was monitored using UV-visible spectroscopy at the respective wavelengths for absorption maxima of the two drugs (483 nm and 660 nm respectively). The beads were sized and imaged using an Olympus BX50F4 microscope with a Colorview III camcorder. Compressibility was measured using an Instron 4411 with a 50 N load cell.

[3] = Elution of doxorubicin from high AMPS microspheres into distilled water
Protocol: High AMPS microspheres were loaded with various concentrations of doxorubicin and the microspheres eluted into 250 ml of distilled water (FIG. 2).
For the higher drug loadings, a burst effect is evident in the first few minutes, followed by a prolonged period of slower release. It is surmised that the burst represents the free drug eluting from the water held within the microspheres, whereas the prolonged elution results from the drug that is “bound” into the spheres essentially by ionic interaction between the charged groups. For the highest loading of drug (from the 20 mg/ml loading solution), the burst effect represents some 45% of the total drug loading of the spheres, the remainder taking several days to completely elute from the carrier. Studies have shown that 100% of the drug is eventually eluted from the microspheres. Drug-loaded beads were lyophilised to remove water and sterilised using gamma irradiation.

[4] = Elution from irinotecan lyophilised microspheres into PBS buffer
Source text: Irinotecan was eluted from lyophilised microspheres with different loadings of camptothecin into PBS buffer. The elution rate slowed down after lyophilisation when compared with the non-lyophilised samples. […] Drug-loaded beads were lyophilised to removed water and sterilised using gamma irradiation.

[5] = Irinotecan loading capacity of microspheres (depletion method, UV 369 nm); settings: microspheres 500-700 μm, irinotecan solution 20 mg/ml, at least 4 hours
Protocol: Irinotecan-loading content and loading efficacy was determined using microspheres, 500-700 μm. A bead slurry was mixed with irinotecan solution (20 mg/ml) in calculated amount, rotating-mixed for at least 4 hours. The solution was measured with UV at 369 nm to determine the irinotecan concentration and the drug-loading in beads (by depletion method). […] Above this the loading efficacy dropped remarkably, indicating saturation of the beads.

Row | SMILES | maximum loading capacity in DC Bead [1] [mg/mL] | Average (mg) of drug per mL of beads (average maximum capacity of DEB) [2] | Mols of loaded drug/Mols of available binding sites [2] | drug eluting at 3 hours ([3]; 133.2 μg/ml and 2 mg/ml loaded microspheres, 250 ml distilled water) | drug eventually eluted from the microspheres ([3]; high AMPS microspheres) [%] | burst effect as share of the total drug loading of the spheres ([3]; high AMPS microspheres, highest loading (20 mg/ml loading solution), 250 ml distilled water, first few minutes) [%] | elution rate after lyophilisation compared with non-lyophilised samples [4] | concentration range in which irinotecan content in beads increased linearly with loading amount (above it saturation of the beads) [5] | Average (mg) of drug per mL of beads (average maximum capacity of DEB) ([2]; listed as Mitox)
1 | COc1cccc2c1C(=O)c1c(O)c3c(c(O)c1C2=O)C[C@@](O)(C(=O)CO)C[C@@H]3O[C@H]1C[C@H](N)[C@H](O)[C@H](C)O1 [Doxorubicin] | 40 | 39.0 mg per mL of beads | 0.9 | below the detection limit | 100 | ~45 |  |  | 
2 | CCc1c2c(nc3ccc(OC(=O)N4CCC(N5CCCCC5)CC4)cc13)-c1cc3c(c(=O)n1C2)COC(=O)[C@]3(O)CC [Irinotecan] |  |  |  |  |  |  | slowed down | below 50 mg/ml | 
3 | O=C1c2c(O)ccc(O)c2C(=O)c2c(NCCNCCO)ccc(NCCNCCO)c21 [Mitoxantrone] |  | 20.0 mg per mL of beads | 0.5 |  |  |  |  |  | 20 mg per mL of beads

From patent publication US8691791B2, “Microspheres for treatment of brain tumors” (Biocompatibles UK Limited, priority 2007, dated 2014)
